Tested on: human vascular smooth muscle cells
Test: DNA synthesis inhibition activity of PGE1 derivatives to human vascular smooth muscle cells (3H-thymidine intake)
Format: cell-based
Conditions: for Growth inhibition rate (percent to control): concentration of the added compound 1×10^−5 M, ethanol solution, 3H-thymidine intake after culturing 24 hours, compared with vehicle-treated control; for growth inhibition activity against human vascular smooth muscle cells: summary in words of Table 1, 1×10^−5 M
Experimental: Determination of DNA synthesis inhibition activity of PGE1 derivatives to human vascular smooth muscle cells
On a plate with 24 wells (manufactured by Corning Co.), 1×10^4 cells/well of quintic culture cells of vascular cells derived from normal human aorta (manufactured by Kurabo Co.) were inoculated and cultured for 2 days. The medium was exchanged from the growth medium (SG2: manufactured by Kurabo Co.) to the basal medium (SB2: manufactured by Kurabo Co.), and cultured for 24 hours, to which was added the growth medium (SG2) containing an ethanol solution of the test compound. 0.01 mci/well of ^3H-thymidine (manufactured by Daiichi Chemicals Co.) was added and, after culturing for 24 hours, the cultured supernatant was removed by suction, followed by washing with a phosphate buffer solution (PBS).
5% Trichloroacetic acid (TCA) was added and, after allowing to stand at 4° C. for 20 minutes, the mixture was washed once with TCA. The mixture was washed with PBS, and dissolved in 0.5 M aqueous potassium hydroxide solution. Intake of ^3H-thymidine was determined using 20 μl of the aqueous potassium hydroxide solution dissolving the cells which incorporated ^3H-thymidine in the nucleus by means of a liquid scintillation counter (manufactured by Hewlett-Packard Co.).
Note: Compounds 7, 70 and 92 in the table are those which were prepared in Examples. The test compounds were each used as an ethanol solution (the concentration of the added compound: 1×10^−5 M), and compared with control (vehicle-treated group).

SMILES | Growth inhibition rate (percent to control) [%] | growth inhibition activity against human vascular smooth muscle cells
CCCC[C@@H](C)CC(O)C#CC1C(CCCCOCC(=O)OC)C(=O)C[C@H]1SCCO (stereo partly drawn) [Compound 70, (11R,17R)-3-oxa-11-deoxy-11-(2-hydroxyethylthio)-17,20-dimethyl-13,14-didehydro-PGE1 Methyl Ester] | 95.6 | high growth inhibition activity
CCCC[C@@H](C)CC(O)C#CC1C(CCCCCCC(=O)O)C(=O)C[C@H]1SCCO (stereo partly drawn) [Compound 7, (11R,17R)-11-deoxy-11-(2-hydroxyethylthio)-17,20-dimethyl-13,14-didehydro-PGE1] | 98.4 | high growth inhibition activity
COC(=O)COCCCCC1C(=O)C[C@@H](SCCO)C1C#CC(O)C[C@H](C)CCC=C(C)C (stereo partly drawn) [Compound 92, (11R,17R)-3-oxa-11-deoxy-11-(2-hydroxyethylthio)-20-isopropylidene-17-methyl-13,14-didehydro-PGE1 Methyl Ester] | 99.3 | high growth inhibition activity

— patent US6455584B1, “Prostaglandin E1 derivatives” (Taisho Pharmaceutical Co., Ltd., priority 1999, dated 2002)
